Measured values reported in patent publication US10709692B2, “Isoxazolidine derived inhibitors of receptor interacting protein kinase 1 (RIPK1)” (Denali Therapeutics Inc., priority 2015, dated 2020).
“And” between values parts separate entries of the source, which are not always exact repeats. Equal entries are not always repeated.

These molecules were tested against T1, receptor interacting protein kinase 1 (GST-hRIPK1 (8-327)) (Homo sapiens, UniProt Q13546) (assay: Fluorescent Polarization Binding (FP Binding) assay). Conditions: 10 nM GST-hRIPK1 (8-327), 5 nM fluorescent-labeled ligand, 30 min at RT.
T1 construct: GST-hRIPK1 (8-327) enzyme was generated by Proteros GmbH by Baculovirus expression system
T1 sequence (Q13546 8-327): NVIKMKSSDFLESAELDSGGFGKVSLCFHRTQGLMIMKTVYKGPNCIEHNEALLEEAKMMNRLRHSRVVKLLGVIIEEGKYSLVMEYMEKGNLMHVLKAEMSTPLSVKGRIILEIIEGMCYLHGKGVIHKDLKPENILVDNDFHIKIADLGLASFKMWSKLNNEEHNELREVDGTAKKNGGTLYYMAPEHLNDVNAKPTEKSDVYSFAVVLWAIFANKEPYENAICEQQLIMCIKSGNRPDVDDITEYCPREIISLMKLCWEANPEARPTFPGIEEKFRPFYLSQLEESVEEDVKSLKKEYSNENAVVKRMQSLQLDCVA
Method in brief: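 Displacement of 5 nM fluorescent ligand from 10 nM GST-hRIPK1 (8-327), 30 min at room temperature in pH 7.5 HEPES buffer, 1% DMSO. Fluorescence polarization read (ex 531/em 595 nm); IC50 fitted from percent inhibition and averaged over at least two independent experiments.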

SMILES | IC50
CC(C)(C)C(=O)N1OCC[C@H]1c1ccnc(N)c1 [Compound 149, 1-[(3S)-3-(2-aminopyridin-4-yl)-1,2-oxazolidin-2-yl]-2,2-dimethylpropan-1-one] | 1 to 10 µM
CC(C)(C(=O)N1OCC[C@H]1c1ccc(F)cc1)N1CCC1 [Compound 156, 2-(azetidin-1-yl)-1-[(3S)-3-(4-fluorophenyl)-1,2-oxazolidin-2-yl]-2-methylpropan-1-one] | 1 to 10 µM
CC(C)(C)C(=O)N1OCCC1c1ccnnc1 (stereo not drawn) [Compound 157, 2,2-dimethyl-1-[3-(pyridazin-4-yl)-1,2-oxazolidin-2-yl]propan-1-one] | 1 to 10 µM
O=C(C1C2COCC21)N1OCC[C@H]1c1ccc(F)nc1 (stereo partly drawn) [Compound 160, 2-fluoro-5-[(3S)-2-{3-oxabicyclo[3.1.0]hexane-6-carbonyl}-1,2-oxazolidin-3-yl]pyridine] | 1 to 10 µM
C[C@](O)(C(=O)N1OCC[C@H]1c1ccc(F)nc1)C(F)(F)F [Compound 166, (2S)-3,3,3-trifluoro-1-[(3S)-3-(6-fluoropyridin-3-yl)-1,2-oxazolidin-2-yl]-2-hydroxy-2-methylpropan-1-one] | 1 to 10 µM
CC(C)(C(=O)N1OCC[C@H]1c1ccc(F)nc1)C(F)F [Compound 169, 3,3-difluoro-1-[(3S)-3-(6-fluoropyridin-3-yl)-1,2-oxazolidin-2-yl]-2,2-dimethylpropan-1-one] | < 1 µM
O=C(N1OCC[C@H]1c1ccc(F)nc1)C1(C(F)F)CC1 [Compound 170, 5-[(3S)-2-[1-(difluoromethyl)cyclo-propanecarbonyl]-1,2-oxazolidin-3-yl]-2-fluoropyridine] | < 1 µM
CC(C)(CC#N)C(=O)N1OCC[C@H]1c1ccc(F)cc1 [Compound 171, 4-[(3S)-3-(4-fluorophenyl)-1,2-oxazolidin-2-yl]-3,3-dimethyl-4-oxobutanenitrile] | < 1 µM and 0.011 µM
N#CC1(C(=O)N2OCC[C@H]2c2ccc(F)cc2)CC2(COC2)C1 [Compound 172, 6-[(3S)-3-(4-fluorophenyl)-1,2-oxazolidine-2-carbonyl]-2-oxaspiro[3.3]heptane-6-carbonitrile] | < 1 µM
[2H]C([2H])([2H])C(C(=O)N1OCC[C@H]1c1ccc(F)cc1)(C([2H])([2H])[2H])C([2H])([2H])[2H] [Compound 173, 1-[(3S)-3-(4-fluorophenyl)-1,2-oxazolidin-2-yl]-2,2-bis(^2H3)methyl(^2H3) propan-1-one] | < 1 µM
CC(C)(C)C(=O)N1OCC[C@H]1c1cncc(Cl)c1 [Compound 174, 1-[(3S)-3-(5-chloropyridin-3-yl)-1,2-oxazolidin-2-yl]-2,2-dimethylpropan-1-one] | < 1 µM
CC(C)(C)C(=O)N1OCC[C@H]1c1ccnc(C(F)F)c1 [Compound 175, 1-[(3S)-3-[2-(difluoromethyl)pyridin-4-yl]-1,2-oxazolidin-2-yl]-2,2-dimethylpropan-1-one] | < 1 µM
CC(C)(COC(F)(F)F)C(=O)N1OCC[C@H]1c1ccc(F)cc1 [Compound 176, 1-[(3S)-3-(4-fluorophenyl)-1,2-oxazolidin-2-yl]-2,2-dimethyl-3-(trifluoromethoxy) propan-1-one] | < 1 µM
CC(C)(COC(F)(F)F)C(=O)N1OCC[C@H]1c1cncc(Cl)c1 [Compound 177, 1-[(3S)-3-(5-chloropyridin-3-yl)-1,2-oxazolidin-2-yl]-2,2-dimethyl-3-(trifluoromethoxy) propan-1-one] | < 1 µM
CC(C)(Cn1cccn1)C(=O)N1OCC[C@H]1c1ccc(F)cc1 [Compound 178, 1-[(3S)-3-(4-fluorophenyl)-1,2-oxazolidin-2-yl]-2,2-dimethyl-3-(1H-pyrazol-1-yl)propan-1-one] | < 1 µM
CC(C)(CC#N)C(=O)N1OCC[C@H]1c1ccc(C#N)cc1 [Compound 181, 4-[(3S)-2-(3-cyano-2,2-dimethylpropanoyl)-1,2-oxazolidin-3-yl]benzonitrile] | < 1 µM
CC(C)(C#N)C(=O)N1OCC[C@H]1c1ccc(F)cc1 [Compound 182, 3-[(3S)-3-(4-fluorophenyl)-1,2-oxazolidin-2-yl]-2,2-dimethyl-3-oxopropanenitrile] | < 1 µM

The remaining lines, values ahead:

IC50 | SMILES
< 1 µM | CC(C)(C)C(=O)N1OCC[C@H]1c1cc(C#N)ccc1F [Compound 150, 3-[(3S)-2-(2,2-dimethylpropanoyl)-1,2-oxazolidin-3-yl]-4-fluorobenzonitrile]
< 1 µM | CC(C)(C)C(=O)N1OCC[C@H]1c1ccc(C#N)c(F)c1 [Compound 151, 4-[(3S)-2-(2,2-dimethylpropanoyl)-1,2-oxazolidin-3-yl]-2-fluorobenzonitrile]
< 1 µM | Cc1ccc([C@@H]2CCON2C(=O)C(C)(C)C)cn1 [Compound 152, 2,2-dimethyl-1-[(3S)-3-(6-methylpyridin-3-yl)-1,2-oxazolidin-2-yl]propan-1-one]
< 1 µM | CC(C)(C)C(=O)N1OCC[C@H]1c1ccc(F)c(C#N)c1 [Compound 153, 5-[(3S)-2-(2,2-dimethylpropanoyl)-1,2-oxazolidin-3-yl]-2-fluorobenzonitrile]
< 1 µM | CC(C)(COC(F)F)C(=O)N1OCC[C@H]1c1ccc(C#N)cc1 [Compound 154, 4-[(3S)-2-[3-(difluoromethoxy)-2,2-dimethylpropanoyl]-1,2-oxazolidin-3-yl]benzonitrile]
< 1 µM | CC1(C(=O)N2OCC[C@H]2c2ccc(F)cc2)CC(F)(F)C1 [Compound 155, (3S)-2-(3,3-difluoro-1-methylcyclobutane-carbonyl)-3-(4-fluorophenyl)-1,2-oxazolidine]
< 1 µM | N#Cc1ccc([C@@H]2CCON2C(=O)C2(C3CC3)CC2)cc1 [Compound 158, 4-[(3S)-2-(1-cyclopropylcyclopro-panecarbonyl)-1,2-oxazolidin-3-yl]benzonitrile]
< 1 µM | O=C(N1OCC[C@H]1c1ccc(F)nc1)C1(C2CC2)CC1 [Compound 159, 5-[(3S)-2-(1-cyclopropylcyclopro-panecarbonyl)-1,2-oxazolidin-3-yl]-2-fluoropyridine]
< 1 µM | [2H]C([2H])([2H])C(C(=O)N1OCC[C@H]1c1ccc(F)nc1)(C([2H])([2H])[2H])C([2H])([2H])[2H] [Compound 161, 1-[(3S)-3-(6-fluoropyridin-3-yl)-1,2-oxazolidin-2-yl]-2,2-bis(^2H3)methyI(^2H3) propan-1-one]
< 1 µM | CC(C)(COC(F)(F)F)C(=O)N1OCC[C@H]1c1ccc(F)nc1 [Compound 164, 1-[(3S)-3-(6-fluoropyridin-3-yl)-1,2-oxazolidin-2-yl]-2,2-dimethyl-3-(trifluoromethoxy) propan-1-one]
< 1 µM | CC(C)(CC#N)C(=O)N1OCC[C@H]1c1ccc(F)nc1 [Compound 165, 4-[(3S)-3-(6-fluoropyridin-3-yl)-1,2-oxazolidin-2-yl]-3,3-dimethyl-4-oxobutanenitrile]
< 1 µM | O=C(C(C1CC1)C1CC1)N1OCC[C@H]1c1ccc(F)nc1 [Compound 167, 2,2-dicyclopropyl-1-[(3S)-3-(6-fluoropyridin-3-yl)-1,2-oxazolidin-2-yl]ethan-1-one]
< 1 µM | O=C(N1OCC[C@H]1c1ccc(F)nc1)C1(C(F)F)CCC1 [Compound 168, 5-[(3S)-2-[1-(difluoromethyl)cyclo-butanecarbonyl]-1,2-oxazolidin-3-yl]-2-fluoropyridine]
